Patent US20260262643A1, “HERBICIDAL BENZOXAZINES” (FMC CORPORATION, priority 2022, published 2026)

Key:
kochia [1] = test: Test C postemergence; assay type: in vivo, Bassia scoparia; conditions: 10 days, 0 to 100 scale (0 no effect, 100 complete control)
How it was run: (§1)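 Test material, in non-phytotoxic solvent with surfactant, was sprayed on the soil directly after seeding (preemergence) or on young plants of 2–10 cm with one to two leaves (postemergence). Greenhouse, 10 days; 0–100 visual control scale.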

soybean [2] = test: Test C postemergence; assay type: in vivo, Glycine max; conditions: 10 days, 0 to 100 scale (0 no effect, 100 complete control)
How it was run: as §1

oat, wild [3] = test: Test C postemergence; assay type: in vivo, Avena fatua; conditions: 10 days, 0 to 100 scale (0 no effect, 100 complete control)
How it was run: as §1

ducksalad = test: Test D flooded paddy test; assay type: in vivo, Heteranthera limosa; conditions: 250 g ai/ha, applied to paddy water, visual rating after 13 to 14 days, scale 0 to 100 (0 no effect, 100 complete control)
How it was run: (§2)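 Seedlings reached the 2-leaf stage, then pots were flooded to 3 cm over the soil surface. Compound was applied into the water, depth was maintained, and plants stayed in the greenhouse 13 to 14 days before visual scoring (0–100) relative to controls.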

wheat [4] = test: Test C preemergence; assay type: in vivo, Triticum aestivum
How it was run: as §1

blackgrass [5] = test: Test C postemergence; assay type: in vivo, Alopecurus myosuroides; conditions: 10 days, 0 to 100 scale (0 no effect, 100 complete control)
How it was run: as §1

foxtail, giant [6] = test: Test C preemergence; assay type: in vivo, Setaria faberi
How it was run: as §1

ryegrass, Italian [7] = test: Test C postemergence; assay type: in vivo, Lolium multiflorum; conditions: 10 days, 0 to 100 scale (0 no effect, 100 complete control)
How it was run: as §1

corn [8] = test: Test C preemergence; assay type: in vivo, Zea mays
How it was run: as §1

ryegrass, Italian [9] = test: Test C preemergence; assay type: in vivo, Lolium multiflorum
How it was run: as §1

ragweed [10] = test: Test C preemergence; assay type: in vivo, Ambrosia artemisiifolia
How it was run: as §1

horseweed = test: Test C postemergence; assay type: in vivo, Erigeron canadensis; conditions: 10 days, 0 to 100 scale (0 no effect, 100 complete control)
How it was run: as §1

galium = test: Test C postemergence; assay type: in vivo, Galium aparine; conditions: 10 days, 0 to 100 scale (0 no effect, 100 complete control)
How it was run: as §1

ragweed [11] = test: Test C postemergence; assay type: in vivo, Ambrosia artemisiifolia; conditions: 10 days, 0 to 100 scale (0 no effect, 100 complete control)
How it was run: as §1

wheat [12] = test: Test C postemergence; assay type: in vivo, Triticum aestivum; conditions: 10 days, 0 to 100 scale (0 no effect, 100 complete control)
How it was run: as §1

rice = test: Test D flooded paddy test; assay type: in vivo, Oryza sativa; conditions: 250 g ai/ha, applied to paddy water, visual rating after 13 to 14 days, scale 0 to 100 (0 no effect, 100 complete control)
How it was run: as §2

corn [13] = test: Test C postemergence; assay type: in vivo, Zea mays; conditions: 10 days, 0 to 100 scale (0 no effect, 100 complete control)
How it was run: as §1

blackgrass [14] = test: Test C preemergence; assay type: in vivo, Alopecurus myosuroides
How it was run: as §1

barnyardgrass [15] = test: Test C postemergence; assay type: in vivo, Echinochloa crusgalli; conditions: 10 days, 0 to 100 scale (0 no effect, 100 complete control)
How it was run: as §1

pigweed, palmer [16] = test: Test C preemergence; assay type: in vivo, Amaranthus palmeri
How it was run: as §1

kochia [17] = test: Test C preemergence; assay type: in vivo, Bassia scoparia
How it was run: as §1

soybean [18] = test: Test C preemergence; assay type: in vivo, Glycine max
How it was run: as §1

sedge, umbrella = test: Test D flooded paddy test; assay type: in vivo, Cyperus difformis; conditions: 250 g ai/ha, applied to paddy water, visual rating after 13 to 14 days, scale 0 to 100 (0 no effect, 100 complete control)
How it was run: as §2

oat, wild [19] = test: Test C preemergence; assay type: in vivo, Avena fatua
How it was run: as §1

foxtail, giant [20] = test: Test C postemergence; assay type: in vivo, Setaria faberi; conditions: 10 days, 0 to 100 scale (0 no effect, 100 complete control)
How it was run: as §1

barnyardgrass [21] = test: Test D flooded paddy test; assay type: in vivo, Echinochloa crus-galli; conditions: 250 g ai/ha, applied to paddy water, visual rating after 13 to 14 days, scale 0 to 100 (0 no effect, 100 complete control)
How it was run: as §2

barnyardgrass [22] = test: Test C preemergence; assay type: in vivo, Echinochloa crusgalli
How it was run: as §1

pigweed, palmer [23] = test: Test C postemergence; assay type: in vivo, Amaranthus palmeri; conditions: 10 days, 0 to 100 scale (0 no effect, 100 complete control)
How it was run: as §1

[24] = 500 g ai/ha, preemergence, 0 to 100 scale (0 no effect, 100 complete control)
[25] = Preemergence, 125 g ai/ha, 0 to 100 scale, 0 no effect, 100 complete control

C=C(C)c1cc(C(=O)N2C[C@H](C)Oc3c(Cl)cccc32)cc(-n2cncn2)c1 [Compound 317]
30: Plant response rating, Oat, Wild (oat, wild [3]; 500 g ai/ha, postemergence)
20: Plant response rating, Kochia (kochia [1]; Postemergence, 125 g ai/ha) | Plant response rating, Wheat (wheat [12]; 500 g ai/ha, postemergence) | Plant response rating, Pigweed, Palmer (pigweed, palmer [16]; [25])
70: Plant response rating, Kochia (kochia [1]; 500 g ai/ha, postemergence) | Plant response rating, Soybean (soybean [2]; Postemergence, 125 g ai/ha) | Plant response rating, Galium (galium; 500 g ai/ha, postemergence) | Plant response rating, Barnyardgrass (barnyardgrass [15]; 500 g ai/ha, postemergence) | Plant response rating, Foxtail, Giant (foxtail, giant [20]; 500 g ai/ha, postemergence)
50: Plant response rating, Galium (galium; Postemergence, 125 g ai/ha) | Blackgrass plant response rating (blackgrass [14]; [24]) | Barnyardgrass plant response rating (barnyardgrass [22]; [24]) | Plant response rating, Pigweed, Palmer (pigweed, palmer [23]; 500 g ai/ha, postemergence)
90: Foxtail, Giant plant response rating (foxtail, giant [6]; [24]) | Pigweed, Palmer plant response rating (pigweed, palmer [16]; [24])
10: Plant response rating, Foxtail, Giant (foxtail, giant [6]; [25]) | Corn plant response rating (corn [8]; [24]) | Plant response rating, Wheat (wheat [12]; Postemergence, 125 g ai/ha) | Plant response rating, Corn (corn [13]; Postemergence, 125 g ai/ha) | Plant response rating, Barnyardgrass (barnyardgrass [15]; Postemergence, 125 g ai/ha) | Plant response rating, Foxtail, Giant (foxtail, giant [20]; Postemergence, 125 g ai/ha) | Plant response rating, Pigweed, Palmer (pigweed, palmer [23]; Postemergence, 125 g ai/ha)
40: Plant response rating, Ryegrass, Italian (ryegrass, Italian [7]; 500 g ai/ha, postemergence) | Plant response rating, Ryegrass, Italian (ryegrass, Italian [9]; [25]) | Plant response rating, Corn (corn [13]; 500 g ai/ha, postemergence) | Oat, Wild plant response rating (oat, wild [19]; [24])
100: Plant response rating, Soybean (soybean [2]; 500 g ai/ha, postemergence)
0: Plant response rating, Oat, Wild (oat, wild [3]; Postemergence, 125 g ai/ha) | Plant response rating, Ducksalad (Flood) (ducksalad) | Wheat plant response rating (wheat [4]; [24]) | Plant response rating, Wheat (wheat [4]; [25]) | Plant response rating, Blackgrass (blackgrass [5]; Postemergence, 125 g ai/ha) | Plant response rating, Ryegrass, Italian (ryegrass, Italian [7]; Postemergence, 125 g ai/ha) | Plant response rating, Corn (corn [8]; [25]) | Ragweed plant response rating (ragweed [10]; [24]) | Plant response rating, Ragweed (ragweed [10]; [25]) | Plant response rating, Horseweed (horseweed; 500 g ai/ha, postemergence) | Plant response rating, Horseweed (horseweed; Postemergence, 125 g ai/ha) | Plant response rating, Ragweed (ragweed [11]; 500 g ai/ha, postemergence) | Plant response rating, Ragweed (ragweed [11]; Postemergence, 125 g ai/ha) | Plant response rating, Rice (Flood) (rice) | Plant response rating, Blackgrass (blackgrass [14]; [25]) | Kochia plant response rating (kochia [17]; [24]) | Plant response rating, Kochia (kochia [17]; [25]) | Soybean plant response rating (soybean [18]; [24]) | Plant response rating, Soybean (soybean [18]; [25]) | Plant response rating, Sedge, Umbrella (Flood) (sedge, umbrella) | Plant response rating, Oat, Wild (oat, wild [19]; [25]) | Plant response rating, Barnyardgrass (Flood) (barnyardgrass [21]) | Plant response rating, Barnyardgrass (barnyardgrass [22]; [25])
60: Plant response rating, Blackgrass (blackgrass [5]; 500 g ai/ha, postemergence) | Ryegrass, Italian plant response rating (ryegrass, Italian [9]; [24])
